According to patent US20210275418A1, “Personal Care Compositions” (Colgate-Palmolive Company, priority 2020, published 2021):

Assays:
Assay type in all cases: biochemical
tyrosinase = test: Tyrosinase inhibition, tyrosinase inhibitor screening kit (Sigma Aldrich MAK 257 Kit)
Protocol: A study of tyrosinase inhibition is conducted (e.g., Sigma Aldrich MAK 257 Kit) to investigate the efficacy of an exemplary composition of the present invention (0.312% lactic acid; 0.156% mandelic acid; and 0.078% pyruvic acid) and individual short chain fatty acids at the same concentrations.
A study of tyrosinase inhibition is conducted (e.g., Sigma Aldrich MAK 257 Kit) to investigate the efficacy of an exemplary composition of the present invention (0.312% mandelic acid and 0.156% pyruvic acid) and individual short chain fatty acids at the same concentrations.
(§1) The anti-tyrosinase activity of an exemplary composition of the present invention was compared to the anti-tyrosinase activity of individual short chain fatty acids. Assays were performed using a tyrosinase inhibitor screening kit from Sigma Aldrich (MAK 257 Kit); and following the manufacturer's protocol. The results of these experiments are described in Table 1 (below).
as §1, with “4” for “1”
Peels were diluted 1000× in buffer to prepare 0.1% working stock. The working stock was serially diluted 2× to test the peels at five doses (0.1 wt. %, 0.05 wt. %, 0.025 wt. %, 0.0125 wt. % and 0.00625 wt. %). The pH of all test samples and dilutions was measured before and after tyrosinase assay to exclude any effect of acid on the enzyme activity. The assay was performed using a commercial kit following manufacturer's protocol (e.g., MAK 257 Kit from Sigma Aldrich). LMP peels containing various concentrations of pyruvic acid at pH 2.5 (“R1 Peels”); LMP peels which were identically formulated to the R1 Peels, but with pH buffered to 3.6 (“R2 Peels”); and LMP′ peels which were identically formulated to the R2 Peels, other than the replacement of pyruvic acid with sodium pyruvate (“R3 Peels”), were all evaluated.

collagenase = test: Collagenase inhibition, collagenase inhibitor screening kit (Sigma Aldrich MAK 293 Kit)
Protocol: (§2) A study of collagenase inhibition is conducted (e.g., Sigma Aldrich MAK 293 Kit) to investigate the was conducted to investigate the efficacy of an exemplary composition of the present invention (1.25% lactic acid; 0.625% mandelic acid; and 0.312% pyruvic acid) and individual short chain fatty acids, at the same concentrations.
as §2, with “mandelic acid and” for “lactic acid;”, “0.625%” for “0.625% mandelic acid; and 0.312%”
as §1, with “anti-collagenase” for “anti-tyrosinase”, “collagenase” for “tyrosinase”, “293” for “257”, “2” for “1”
as §1, with “anti-collagenase” for “anti-tyrosinase”, “collagenase” for “tyrosinase”, “293” for “257”, “5” for “1”

elastase = target: T1, elastase (Homo sapiens, UniProt P08246); test: Elastase inhibition, elastase inhibitor screening kit (Sigma Aldrich MAK 213 Kit); settings: Table 3, Example 7
T1 construct: purchased Sigma Aldrich MAK 213 Kit
T1 sequence (P08246 30-267): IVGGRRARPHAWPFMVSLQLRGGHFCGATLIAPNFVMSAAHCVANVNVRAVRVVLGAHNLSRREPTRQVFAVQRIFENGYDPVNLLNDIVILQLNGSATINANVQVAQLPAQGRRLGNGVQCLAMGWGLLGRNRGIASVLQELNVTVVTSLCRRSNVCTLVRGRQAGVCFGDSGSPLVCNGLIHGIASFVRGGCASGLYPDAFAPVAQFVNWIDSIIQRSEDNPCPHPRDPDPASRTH
Protocol: as §1, with “anti-elastase” for “anti-tyrosinase”, “an elastase” for “a tyrosinase”, “213” for “257”, “3” for “1”

SMILES: O=C(O)C(O)c1ccccc1 (centres unmarked) [Mandelic Acid (M), mandelic acid]
- % Tyrosinase Inhibition (tyrosinase; Table 4, Example 8, 0.156 wt. %): 0.06%
- % Tyrosinase Inhibition (tyrosinase; Table A, Example 1, 0.156 wt. %): 0.06%
- % Tyrosinase Inhibition (tyrosinase; Table C, Example 3, 0.312 wt. %): 1.17%
- % Collagenase Inhibition (collagenase; Table 5, Example 9, 0.625 wt. %): 8.57%
- % Collagenase Inhibition (collagenase; Table B, Example 2, 0.625 wt. %): 8.57%
- % Collagenase Inhibition (collagenase; Table D, Example 4, 1.25 wt. %): 11.26%

SMILES: CC(O)C(=O)O (centres unmarked) [Lactic Acid (L), lactic acid]
- % Tyrosinase Inhibition (tyrosinase; Table 1, Example 5, 0.312 wt. %): 52.72%
- % Tyrosinase Inhibition (tyrosinase; Table 4, Example 8, 0.312 wt. %): 1.23%
- % Tyrosinase Inhibition (tyrosinase; Table A, Example 1, 0.312 wt. %): 2.23%
- % Collagenase Inhibition (collagenase; Table 2, Example 6, 1.25 wt. %): 40.32%
- % Collagenase Inhibition (collagenase; Table 5, Example 9, 1.25 wt. %): 12.71%
- % Collagenase Inhibition (collagenase; Table B, Example 2, 1.25 wt. %): 12.71%
- % Elastase Inhibition (elastase; 0.625 wt. %): 44.89%

SMILES: CC(=O)C(=O)O [Pyruvic Acid (P), pyruvic acid]
- % Tyrosinase Inhibition (tyrosinase; Table 1, Example 5, 0.078 wt. %): 29.29%
- % Tyrosinase Inhibition (tyrosinase; Table A, Example 1, 0.078 wt. %): 0.37%
- % Tyrosinase Inhibition (tyrosinase; Table C, Example 3, 0.156 wt. %): 26.62%
- % Collagenase Inhibition (collagenase; Table 2, Example 6, 0.312 wt. %): 8.79%
- % Collagenase Inhibition (collagenase; Table B, Example 2, 0.312 wt. %): 6.70%
- % Collagenase Inhibition (collagenase; Table D, Example 4, 0.625 wt. %): 9.58%
- % Elastase Inhibition (elastase; 0.156 wt. %): 20.21%
